# Results as given in patent US20190359653A1, “SELECTIVE PEPTIDE INHIBITORS OF FRIZZLED” (Genentech, Inc., priority 2016, published 2019).
# Entries after “also recorded” stand apart in the source; their conditions may differ. Where two headings read alike, the source gives them in different places.
# Columns and labels:
# Herceptin = experiment: spot phage ELISA against Herceptin (off-target); assay type: binding; conditions: spot phage ELISA signal against Herceptin over ELISA signal against BSA; Tables 3 and 4
# Procedure: Phage pools of linear peptide libraries (Stanger, K. et al. Allosteric peptides bind a caspase zymogen and mediate caspase tetramerization. Nat Chem Biol 8, 655-660 (2012)) were cycled through rounds of binding selections with hFZD7 CRD-Fc following standard protocols (Tonikian et al. (2007) Nat Protoc 2, 1368-1386). Herceptin (10 μM) was included in sorting solution to block potential Fc binders during all rounds of sorting. After four rounds of binding selection, individual phage clones were analyzed in a high-throughput spot phage ELISA using plate-immobilized FZD7 CRD-Fc as target or off-target for specificity test (hFZD8 CRD-Fc and Herceptin). To measure off-target affinity, duplicate phage particle were assayed against BSA to measure non-specific binding. Clones with a phage-binding signal >0.5 and signal-to-noise ratio >10 were considered to be positive clones and were subjected to DNA sequence analysis. General data handling was done using Microsoft Excel 2010 unless otherwise noted.
# In order to investigate the role of FZD7 in intestinal stem cell function, experiments were performed to identify ligands that selectively bind FZD7 CRD. A naïve linear peptide library (4-16 amino acids in length) and a cyclic peptide library were screened via phage display against FZD7 CRD-Fc. Peptides found to bind FZD7 CRD-Fc were then screened via spot phage ELISA against FZD7 CRD-Fc, FZD8 CRD-Fc, and Herceptin to identify candidates that bind FZD7 CRD but not FZD8 CRD or herceptin. The amino acid sequences of candidate FZD7 CRD-binding linear peptides are shown in Table 3 below, and the amino acid sequences of candidate FZD7 CRD-binding cyclic peptides are shown in Table 4.
# Briefly, sixty Fz7-21-derived peptides (see Table 5), each containing at least one random alanine and/or valine/and/or aspartic acid and/or serine substitution, were generated and screened via spot phage ELISA (i.e., as described above) against FZD7 CRD-Fc and Herceptin.
# [1] = test system: Wnt3a-mediated β-catenin signaling in HEK293-TB cells; assay type: cell-based; conditions: for HEK293S-TB % Remaining Activity: measured at 100 μM peptide
# [2] = test system: Wnt3a-mediated stabilization of β-catenin in mouse L cells; experiment: in-cell western of β-catenin protein in L cells treated with Wnt3a; assay type: cell-based; conditions: for Wnt3a-mediated stabilization of β-catenin: mouse L cells
# Procedure: DMSO controls were performed in parallel. Following treatment, the L-cells were fixed, permeabilized, probed with fluorescently labeled anti-β-catenin antibodies, and observed via in-cell western assay (i.e., as described in Hannoush, R. N. (2008) PLoS One 3, e3498) to assess β-catenin protein levels. The values in Table 7 are averages of at least 3 independent replicates, ±standard deviation.
# [3] = test system: receptor-independent β-catenin signaling in 6-BIO-treated HEK293-TB cells; experiment: epistasis study, HEK293-TB cells stimulated with 6-BIO; assay type: cell-based; conditions: 10 μM 6-BIO, 6 hr; FIG. 2E
# hFZD7 CRD-His = target: T1, hFZD7 CRD-His (Homo sapiens, UniProt O75084); experiment: SEC-MALS of hFZD7 CRD-His incubated with peptide; assay type: binding
# T1 construct: hFZD7 CRD-His [Gln33-Gly168] was expressed as a secreted protein in Trichoplusia ni cells expressing EndoH; made in house; host or cells: Trichoplusia ni cells expressing EndoH, treated with Kifunensine (baculovirus)
# Procedure: Samples were resolved by a Superdex S200 3.2/300 column (General Electric Healthcare Life Science, Pittsburgh, Pa.; cat. no. 28990946) at 0.15 mL/min in 150 mM NaCl, 50 mM Tris-HCl pH 7.5 buffer with 1% DMSO final concentration. Runs were performed on a 1260 infinity HPLC (Agilent Technology, Santa Clara, Calif.) connected to a Dawn Heleos-II multi-angle static Light Scattering (MALS) detector and a Optilab T-rEX differential Refractive Index (dRI) detector (Wyatt Technologies, Santa Barbara, Calif.).
# Samples were resolved by a Superdex S200 3.2/300 column (General Electric Healthcare Life Science, Pittsburgh, Pa.; 28990946) at a 0.15 mL/min in 150 mM NaCl, 50 mM Tris-HCl pH 7.5 buffer with 1% DMSO final concentration. Column was connected to a 1260 infinity HPLC (Agilent Technology, Santa Clara, Calif.) connected to a Dawn Heleos-II Multi-Angle static Light Scattering (MALS) detector and the Optilab T-rEX differential Refractive Index (dRI) detectors (Wyatt Technologies, Santa Barbara, Calif.).
# [4] = test system: Wnt5a binding to FZD1 CRD, FZD2 CRD, and FZD7 CRD; experiment: ELISA of biotinylated Wnt5a binding to FZD CRD-Fc; conditions: FIGS. 22A, 22B
# Procedure: (§1) 384-well Maxisorp plates (cat. no. 464718; Thermo Scientific) were incubated with 30 μL of Neutravidin (cat. no. 31000, Thermo Scientific; 2 μg/mL in PBS) overnight at 4° C. Plates were then washed with PBST and blocked with PBS/1% BSA for 1 hour at RT and then washed with PBST prior to further processing. The binding assay was conducted in 96 well plates (cat no. 83007-374; VWR) which were blocked with PBS/1% BSA overnight at 4° C. hFZD4 CRD-Fc or hFZD7 CRD-Fc (63 ng/mL) were incubated with either Bio-Wnt3a (25 ng/mL) or Bio-Wnt5a (50 ng/mL) in the presence of 4-fold serial dilutions of the indicated peptide in PBS overnight at 4° C. All assays included hFZD9 CRD-mIgG2A protein as a negative control. hFZD7 CRD-His was suspended in 150 mM NaCl, 50 mM Tris-HCl at pH 7.5 and when used in assays an equal volume of the same buffer control was used. The binding assay mixtures were transferred to the Neutravidin coated plates and incubated for ˜1 h at RT. The wells were then washed with PBST, incubated with anti-hIgG1-HRP (1:10,000 suspended in PBS supplemented with 1% BSA; cat. no. A18817, Invitrogen), and washed again with PBST. The signal was developed with the addition of TMB reagent (following the manufacturer's recommendation; KPL; 50-76-00) for 15 min prior to the addition of an equal volume of 1 M phosphoric acid for 10 min Absorbance was measured at 450 nm using a Tekan M1000 plate reader. Values were collected and plotted using Prism Graphpad software. All assay conditions using peptides were at 1% DMSO final concentration. […]
# (§2) Briefly, the assays were performed using (a) FZD1 CRD-Fc, (b) FZD2 CRD-Fc, (c) FZD4 CRD-Fc, or (d) FZD7 CRD-Fc as the capture reagent and biotinylated-Wnt5a as the detection reagent. […] Streptavidin-HRP was used to detect biotinylated Wnt5a, and HRP activity was measured as a function of chemiluminescence detection at 428 nm. […]
# [5] = target: T2, Wnt5a binding to FZD4 CRD (Homo sapiens, UniProt Q9ULV1); experiment: ELISA of biotinylated Wnt5a binding to FZD CRD-Fc; conditions: peptide 0-10 μM
# T2 construct: hFZD4 CRD-Fc (cat no. 5847-FZ); purchased R&D systems 5847-FZ
# T2 sequence (Q9ULV1 40-161 limits assumed): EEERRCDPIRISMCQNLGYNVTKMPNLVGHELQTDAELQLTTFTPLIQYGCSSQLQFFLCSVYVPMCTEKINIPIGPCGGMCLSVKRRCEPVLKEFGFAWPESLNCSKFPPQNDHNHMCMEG
# Procedure: as §1, §2
# [6] = target: T3, Wnt3a binding to FZD4 CRD (Homo sapiens, UniProt Q9ULV1); experiment: ELISA of biotinylated Wnt3a binding to FZD CRD-Fc; conditions: peptide 0-10 μM
# T3 construct: hFZD4 CRD-Fc (cat no. 5847-FZ); purchased R&D systems 5847-FZ
# T3 sequence (Q9ULV1 40-161 limits assumed): T2 sequence (Q9ULV1 40-161 limits assumed)
# Procedure: 384-well Maxisorp plates (cat. no. 464718; Thermo Scientific) were incubated with 30 μL of Neutravidin (cat. no. 31000, Thermo Scientific; 2 μg/mL in PBS) overnight at 4° C. Plates were then washed with PBST and blocked with PBS/1% BSA for 1 hour at RT and then washed with PBST prior to further processing. The binding assay was conducted in 96 well plates (cat no. 83007-374; VWR) which were blocked with PBS/1% BSA overnight at 4° C. hFZD4 CRD-Fc or hFZD7 CRD-Fc (63 ng/mL) were incubated with either Bio-Wnt3a (25 ng/mL) or Bio-Wnt5a (50 ng/mL) in the presence of 4-fold serial dilutions of the indicated peptide in PBS overnight at 4° C. All assays included hFZD9 CRD-mIgG2A protein as a negative control. hFZD7 CRD-His was suspended in 150 mM NaCl, 50 mM Tris-HCl at pH 7.5 and when used in assays an equal volume of the same buffer control was used. The binding assay mixtures were transferred to the Neutravidin coated plates and incubated for ˜1 h at RT. The wells were then washed with PBST, incubated with anti-hIgG1-HRP (1:10,000 suspended in PBS supplemented with 1% BSA; cat. no. A18817, Invitrogen), and washed again with PBST. The signal was developed with the addition of TMB reagent (following the manufacturer's recommendation; KPL; 50-76-00) for 15 min prior to the addition of an equal volume of 1 M phosphoric acid for 10 min Absorbance was measured at 450 nm using a Tekan M1000 plate reader. Values were collected and plotted using Prism Graphpad software. All assay conditions using peptides were at 1% DMSO final concentration.
# Without being bound be theory, the substantial conformational change induced by dFz7-21 on hFZD7 CRD, as exemplified by the altered geometry of the lipid binding cavity, may facilitate the accommodation of two Wnt molecules simultaneously onto the hFZD7 CRD dimer (FIG. 4e-h).
# Similar results were observed using Wnt3a. […] Binding of Wnt3a to FZD1 CRD, FZD2 CRD, and FZD7 CRD increased in the presence of dFz7-21 at concentrations below about 0.5 μM (FIG. 22E), with the most binding seen in the presence of 0.01 μM-0.05 μM dFz7-21. […] Fz7-21S had no effect on Binding of Wnt3a to any of the FZD CRDs tested (FIG. 22F).
# [7] = […], mWnt3a 50 ng/mL, 6 hours, mean ± standard deviation, read-out: HEK293S-TB IC50
# [8] = β-catenin by immunofluorescence, Wnt3a 2.5 nM, 5 hours, mean ± standard deviation
# [9] = read-out: IC50, Wnt3a-stimulated β-catenin signaling
# [10] = measured at 11.11 μM of peptide
Sequence,SIGNAL: NOISE RATIO HERCEPTIN (Herceptin),"IC50 [1, 7]",HEK293S-TB % Remaining Activity ([1]; mean ± standard deviation),L CELLS % Remaining Activity ([2]; measured at 100 μM peptide),"IC50 [2, 8]",other results
FDFCSVMPQFIYCPGD [Fz7-20],1.14,20.8 ± 1.61 µM,9.78 ± 0.53%,23.68 ± 4.40%,15.2 ± 10.8 µM,
ISLIEAMIALDRVF [Fz7-06],1.1,10.5 ± 0.56 µM,4.70 ± 2.07%,174.95%,,"L CELLS IC50 (μM) [2, 8]: n. i."
IWFKGRFVEFSSLV [Fz7-17],1.1,34.77 ± 0.34 µM,4.59 ± 1.30%,38.20 ± 0.06%,~35 µM,
LPSDDLEFWCHVMY [Fz7-21],,,5.15 ± 2.88%,,0.05 ± 0.03 µM,"IC50 [1, 9]: 0.09 to 0.1 µM; L CELLS % Remaining Activity [2, 10]: 50.98^G ± 3.76%; Wnt3a-mediated stabilization of β-catenin [2]: blocked; inhibition of Wnt signaling in 6-BIO-treated cells [3]: Neither Fz7-21 nor Fz7-21S inhibited; ΔMW (kDa) (hFZD7 CRD-His; 1:5, relative to the DMSO control): 6.4 kDa; homodimerization or oligomerization of hFZD7 CRD-His (hFZD7 CRD-His; concentration-dependent): induced homodimerization or oligomerization; MW (kDa) (hFZD7 CRD-His; hFZD7 CRD 15.8 μM, protein:peptide 1:1, 2 h): 21.9 kDa; MW (kDa) (hFZD7 CRD-His; protein:peptide 1:5): 27.3 kDa; MW (kDa) (hFZD7 CRD-His; protein:peptide 1:10): 32 kDa; peptide concentration with the most Wnt5a binding [4]: 0.1 µM; effect on Wnt5a binding to FZD4 CRD [5]: did not show any effect; also recorded: no such effect; effect on Wnt3a binding to FZD4 CRD [6]: did not show any effect; also recorded: Neither Fz7-21 nor dFz7-21 had any effect"
LPSDNLEFWCHVMY [Fz7-21N],,,5.51 ± 0.13%,,0.18 ± 0.12 µM,"IC50 [1, 9]: 0.1 µM; L CELLS % Remaining Activity [2, 10]: 59.77^G ± 6.12%; Wnt3a-mediated stabilization of β-catenin [2]: blocked"
SDDXEFWCHVMY [dFz7-21Δ2.L6Hof],,,,,,IC50 compared with dFz7-21 ([1]; text to Table 17): comparable to that of dFz7-21
YEHLHDLMDLIRPW [Fz7-07],1.2,> 100 µM,46.04 ± 6.94%,67.20 ± 10.22%,> 100 µM,
